{"source": "patent US20140314844A1", "about": "“ORAL COMPLEX FORMULATION COMPRISING OMEGA-3 FATTY ACID AND HMG-COA REDUCTASE INHIBITOR WITH IMPROVED STABILITY” (HANMI PHARM. CO., LTD, priority 2011, published 2014)", "test": "Suitability test between capsule ingredients and rosuvastatin calcium (heating, HPLC of related material RRT 0.72)", "format": "physicochemical", "details": "rosuvastatin 50 mg mixed with 100 mg capsule ingredient, heated at 100° C. for 2 hours, FIG. 1", "method": "In order to evaluate interaction between the ingredients of a soft or hard capsule and statins, the following test was performed.\nSpecifically, gelatin (grade: 165 bloom, Geltech, Korea) which is a main ingredient of capsule; glycerol, propylene glycol and polyethylene glycol (PEG400), which are often used as a plasticizer; and sorbitol sorbitan solution (ROQUETTE, France, NF grade, containing solid content of 27.5 wt % of sorbitan and 34.4 wt % of sorbitol) were examined to evaluate the interaction with rosuvastatin calcium. In accordance with the ingredients described in Table 1, all ingredients were mixed, heated at 100° C. for 2 hours, and then evaluated by HPLC analysis.\nHPLC analysis was performed using a stainless steel column of approximately 250 mm length, packed with 5 μm C18 or a similar column (Inertsil-ODS2, GL sciences) with a mobile phase of water:acetonitrile:1%(v/v) trifluoroacetic acid solution (62:37:1 (v/v)) at flow rate of 0.75 mL/min. The peak of related material as compared to the major peak of rosuvastatin, was analyzed quantitatively."}
{"smiles": "CC(C)c1nc(N(C)S(C)(=O)=O)nc(-c2ccc(F)cc2)c1/C=C/[C@@H](O)C[C@@H](O)CC(=O)[O-].CC(C)c1nc(N(C)S(C)(=O)=O)nc(-c2ccc(F)cc2)c1/C=C/[C@@H](O)C[C@@H](O)CC(=O)[O-].[Ca+2]", "note": "[Ref. Ex. 1, rosuvastatin calcium]", "values": [{"measurement": "production of related material RRT 0.72", "result": "excluding"}]}
